Values of other authors as cited in US8410082B2, “Fluorinated diaryl urea derivatives” (Concert Pharmaceuticals, Inc., priority 2009, dated 2013).

Settings: main circulating metabolite of sorafenib in plasma

[O-][n+]1ccccc1 [pyridine N-oxide]
share of circulating analytes at steady-state: 9-16%
